Measurements from patent US20070225363A1, “Methods and Agents for Inhibiting Dynamin-Dependent Endocytosis” (the University of Newcastle Research Associates Ltd., priority 2003, published 2007).
“Also recorded” adds a separate entry of the source. Each block holds one compound with its values, some of them ahead of it.

How the values were obtained:
[1] = biological target: T1, dynamin I (Ovis aries, UniProt A0ACI6NZN1); assay: Dynamin I GTPase assay ([γ-32P]GTP hydrolysis); assay type: biochemical, sheep
Experimental: (§1) The plasmid for GST-Amph2-SH3 (muscle Amph2) (Butler et al., 1997) was provided by Pieto DeCamilli, Yale, Connecticut, USA, in pGEX2T vectors. The plasmid was grown in E. coli and the GST-Amph2-SH3 fusion protein was purified on glutathione (GSH)-Sepharose by elution with 10 mM reduced GSH in 20 mM Tris-HCl, pH 7.5, dialysed against the same buffer without GSH and stored at 4° C. Dynamin was purified from sheep brain by extraction from the peripheral membrane fraction of whole brain (Robinson et al., 1993) and affinity purification on GST-Amph2-SH3-sepharose as previously described (Marks and McMahon., 1998), yielding 8 mg protein from 250 g sheep brain. Recombinant dynamin II was expressed in insect cells and was a gift from Dr Sandra Schmid (Scripps, San Diego, Calif.). Recombinant dynamin I lacking the PH domain (dynamin PH, provided by Robin Scaife) was expressed in insect cells using baculoviral infection (Salim et al., 1996).
(§2) Dynamin GTPase activity was determined by hydrolysis of [ ? -^32P]GTP by a method modified from that described previously (Robinson et al., 1993). Briefly, purified dynamin I or dynamin II (0.2 μg/tube) was incubated in GTPase buffer (10 mM Tris, 10 mM NaCl, 2 mM Mg^2+, 0.05% Tween 80, pH 7.4, 1 μg/ml leupeptin and 0.1 mM PMSF) and a GTP cocktail containing 0.3 mM GTP and 1.3 μCi [ ? -^32P]-GTP in the presence or absence of varying concentrations of inhibitors or DMSO vehicle for 10 min at 30 C. The final assay volume was 40 μl. Dynamin activity was measured as either basal or phospholipid-stimulated with the addition of 5 μg/ml L-phosphatidylserine. The reaction was terminated with 100 μl of GTPase stop buffer (2% formic add, 8% acetic acid, pH 1.9), followed by 600 μl of acid-washed charcoal solution (7% charcoal in acidic solution (w/v)) and 100 μl BSA (5 mg/ml). After centrifuging for 5 min (13,000 rpm at room temperature), 200 μl of each supernatant was counted in a -counter for the release of ^32Pi from [ ? -^32P]-GTP.

[2] = tested on: dynamin II; assay: [α-32P]-GTP binding assay, dynamin II
Experimental: (§3) The [α-^32P]-GTP-binding assay was performed in the wells of a 96-well microtitre plate. Dynamin (0.2 μg/well) was added to GTPase buffer and incubated for 10 min at 4 C in the dark. [α-^32P]-GTP (2 μCi/tube) was then added to the reaction and incubated for a further 10 min at 4 C. in the dark. The microtitre plate was then irradiated with a short wavelength ultraviolet lamp at […] for 30 min at a distance of 8 cm. The specificity of photolabelling was determined by comparing the labelling in the presence and absence of 1 mM cold GTP. Samples were then applied to nitrocellulose membranes by aspiration through the wells of a 24 well slot blotter. The nitrocellulose was washed 3 times with PBS and dried. Bound nucleotide was detected by a phosphorimager (Molecular Dynamics).

[3] = tested on: ΔPH domain dynamin I; assay: GTPase assay with recombinant dynamin I lacking the PH domain; assay type: biochemical
Experimental: as §1
as §2, with “-^32P]-GTP. […]” for “-^32P]-GTP.”

[4] = biological target: T1, dynamin I; assay: [α-32P]-GTP binding assay, dynamin I; parameters: species or system sheep
Experimental: as §3

[5] = tested on: isolated nerve terminals (synaptosomes); assay: Glutamate release assay (exocytosis) in synaptosomes; assay type: cell-based, rat; conditions: 30 mM KCl
Experimental: The glutamate release assay was performed using enzyme-linked fluorescent detection of released glutamate (Cousin and Robinson., 2000a, b). Briefly, synaptosomes (0.6 mg in 2 ml) were resuspended in either plus (1.2 mM CaCl2) or minus (1 mM EGTA) Ca^2+ Krebs-like solution (118.5 mM NaCl, 4.7 mM KCl, 1.18 mM MgCl2, 0.1 mM Na2HPO4, 20 mM Hepes, 10 mM glucose, pH 7.4) at 37° C. Experiments were started after addition of 1 mM NADP^+. After 1 minute 50 U of glutamate dehydrogenase was added and the synaptosome suspension was stimulated after 4 minutes with 30 mM KCl. Increases in fluorescence due to production of NADPH were monitored in a Perkin-Elmer LS-50B spectrofluorimeter at 340 nm excitation and 460 nm emission. Experiments were standardised by the addition of 4 nmol of glutamate. Data is presented as Ca^2+-dependent glutamate release, calculated as the difference between release in plus and minus Ca^2+ solution for identical stimulation conditions.

[6] = tested on: HER14 cells; assay: Texas Red-transferrin uptake in HER14 cells; assay type: cell-based; conditions: drug added 15 or 60 minutes before Tf-TxR
Experimental: (§4) Transferrin (Tf) uptake was analysed in Swiss 3T3 and HER14 cells based on methods previously described (van der Bliek et al., 1993). Briefly, cells were plated to 60% confluency in DMEM medium plus 10% foetal calf serum after which the cells were incubated overnight (8-10 hours) in DMEM minus foetal calf serum. Texas red-transferrin (Tf-TxR, Molecular Probes, Oregon) was added to a final concentration of 5 μg/ml and the cells incubated at 37° C. for 10 minutes. Cell surface staining was removed by incubating the cells in an ice cold acid wash solution (0.2 M acetic acid +0.5 M NaCl, pH 2.8) for 15 minutes. Cells were immediately fixed with 4% paraformaldehyde for 10 minutes then washed 3 times with PBS. Nuclei were stained using DAPI (Molecular Probes, Oregon). Slides were mounted using DABCO and the fluorescence was monitored using a Leica DMLB bright field microscope and SPOT digital camera.

[7] = tested on: Ras; assay: [α-32P]-GTP binding to small G protein Ras; conditions: data not shown
Experimental: (§5) Competition of these drugs with GTP for the active site of 4 small G proteins (Rab3A, Ras, Arf2, RalA) was also tested.

[8] = biological target: T2, RalA (Homo sapiens, UniProt P11233); assay: [α-32P]-GTP binding to small G protein RalA; conditions: data not shown
T2 sequence (P11233 1-206): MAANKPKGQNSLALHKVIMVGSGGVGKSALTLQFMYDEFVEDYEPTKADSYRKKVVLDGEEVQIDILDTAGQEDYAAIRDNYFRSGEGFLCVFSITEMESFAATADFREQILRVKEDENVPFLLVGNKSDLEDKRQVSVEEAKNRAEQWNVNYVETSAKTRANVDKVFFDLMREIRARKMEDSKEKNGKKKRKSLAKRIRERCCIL
Experimental: as §5

[9] = biological target: T3, Rab3A (Homo sapiens, UniProt P20336); assay: [α-32P]-GTP binding to small G protein Rab3A; conditions: data not shown
T3 sequence (P20336 1-220): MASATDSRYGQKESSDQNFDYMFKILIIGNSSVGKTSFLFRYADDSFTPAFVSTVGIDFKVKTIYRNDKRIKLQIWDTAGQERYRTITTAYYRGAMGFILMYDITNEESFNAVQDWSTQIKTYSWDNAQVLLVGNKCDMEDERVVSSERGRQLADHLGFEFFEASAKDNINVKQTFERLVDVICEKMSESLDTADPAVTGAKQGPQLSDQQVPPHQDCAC
Experimental: as §5

[10] = tested on: Arf2; assay: [α-32P]-GTP binding to small G protein Arf2; conditions: data not shown
Experimental: as §5

[11] = tested on: isolated nerve terminals (synaptosomes); assay: Synaptic vesicle endocytosis, FM2-10 uptake in synaptosomes; assay type: cell-based, rat; conditions: 100 μM
Experimental: Isolated nerve terminals (synaptosomes) were prepared from rat cerebral cortex by centrifugation on discontinuous percoll gradients (Dunkley et al., 1986). Fractions 3 and 4 were pooled and used in all experiments. Endocytosis was measured using uptake of the fluorescent dye FM2-10 as previously described (Cousin and Robinson 2000a). Synaptosomes (0.6 mg in 2 ml) were incubated for 5 min at 37° C. in plus or minus Ca^2+ Krebs-like solution. FM2-10 ([…]) was added 1 min before stimulation with 30 mM KCl (S1). As FM2-10 is taken up by vesicles via endocytosis at the S1 phase of stimulation, synaptosomes were incubated with antagonists during this phase. […] After 2 min of stimulation synaptosomes were washed twice in plus Ca^2+ solution containing 1 mg/ml bovine serum albumin. The washing steps remove non-internalised FM2-10 and the tyrphostins. Washed synaptosomes were resuspended in plus Ca^2+ solution at 37° C., transferred to a fluorimeter cuvette and stimulated with a standard addition of 30 mM KCl (S2). The standard S2 stimulation releases all accumulated FM2-10 and allows endocytosis to be measured as the decrease in FM2-10 fluorescence due to dye release into solution (excitation 488 nm, emission 540 nm).
Endocytosis was calculated as the decrease in absolute fluorescence stimulated by 30 mM KCl at S2. […] Retrieval efficiency is a more accurate measure of endocytosis since it takes into account the amount of prior exocytosis. Retrieval efficiency was calculated as endocytosis/exocytosis, where endocytosis is defined as above and exocytosis as Ca^2+-dependent glutamate release after 2 min of stimulation. The retrieval efficiency value was normalised to a ratio of 1.0 for 30 mM KCl.

[12] = tested on: Swiss 3T3 cells; assay: Texas Red-transferrin uptake in Swiss 3T3 cells; assay type: cell-based; conditions: drug added 15 or 60 minutes before Tf-TxR
Experimental: as §4

T1 sequence (A0ACI6NZN1 entry or part of it): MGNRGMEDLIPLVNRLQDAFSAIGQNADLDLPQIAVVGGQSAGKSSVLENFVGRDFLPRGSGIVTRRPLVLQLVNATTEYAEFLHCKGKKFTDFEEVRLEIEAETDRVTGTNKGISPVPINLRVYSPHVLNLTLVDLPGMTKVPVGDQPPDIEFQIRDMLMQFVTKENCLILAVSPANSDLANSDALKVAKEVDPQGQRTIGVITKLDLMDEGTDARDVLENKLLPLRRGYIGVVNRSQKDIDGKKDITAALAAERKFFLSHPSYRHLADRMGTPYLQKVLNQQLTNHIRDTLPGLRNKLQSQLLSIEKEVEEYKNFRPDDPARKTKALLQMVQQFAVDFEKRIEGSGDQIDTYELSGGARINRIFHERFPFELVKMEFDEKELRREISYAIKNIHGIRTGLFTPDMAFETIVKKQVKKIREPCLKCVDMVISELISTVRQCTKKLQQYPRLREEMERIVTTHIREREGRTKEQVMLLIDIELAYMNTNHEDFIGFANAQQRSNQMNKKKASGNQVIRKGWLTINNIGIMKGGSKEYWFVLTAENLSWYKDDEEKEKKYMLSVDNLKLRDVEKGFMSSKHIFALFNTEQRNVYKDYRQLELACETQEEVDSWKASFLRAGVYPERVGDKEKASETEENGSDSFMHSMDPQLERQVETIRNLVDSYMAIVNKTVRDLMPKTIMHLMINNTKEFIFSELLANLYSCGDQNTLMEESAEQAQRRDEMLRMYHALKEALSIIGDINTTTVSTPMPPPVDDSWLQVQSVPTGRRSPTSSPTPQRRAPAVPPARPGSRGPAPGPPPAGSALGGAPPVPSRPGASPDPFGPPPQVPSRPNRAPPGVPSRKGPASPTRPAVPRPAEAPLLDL

effect on dynamin GTPase activity ([1]; alone, data not shown): without effect
Structure (SMILES): O[C@H](CS)[C@H](O)CS (racemic) [Dithiothreitol, dithiothreitol]

Structure (SMILES): CN(C)CCCn1cc(C2=C(c3c[nH]c4ccccc34)C(=O)NC2=O)c2ccccc21 [BIM I]
[α-32P]-GTP binding to dynamin II in the presence of drug [2]: compete with GTP | ability to inhibit GTPase activity of dynamin I lacking the PH domain [3]: lost its ability to inhibit | [α-32P]-GTP binding to dynamin I in the presence of drug [4]: compete with GTP

Structure (SMILES): COc1cc(C=C(C#N)C(=O)NCCCNC(=O)C(C#N)=Cc2cc(O)c(O)c(OC)c2)cc(O)c1O [Compound 24, 2-Cyano-N-{3-[2-cyano-3-(3,4-dihydroxy-methoxyphenyl)-acryloylamino]-propyl}-3-(3,4-dihydroxy-5-methoxyphenyl)-acrylamide]
IC50 ([1]; library 1 (dimeric) compounds): 5 ± 1 µM

Structure (SMILES): N#C/C(=C\c1ccc(O)c(O)c1)C(=O)N1CCN(C(=O)/C(C#N)=C/c2ccc(O)c(O)c2)CC1 [Compound 71]
dynamin inhibition ([1]; screen at ≦100 μM): no dynamin inhibition

Structure (SMILES): N#C/C(=C\c1ccc(O)c(O)c1)C(N)=S [tyrphostin A47]
exocytosis (Ca2+-dependent glutamate release) [5]: no effect | internalisation of texas-red labelled transferrin into HER14 cells [6]: not as dramatically as bis-tyrphostin | inhibitory potency on dynamin ([1]; freshly prepared solutions): no inhibitory potency | inhibitory potency on dynamin ([1]; stocks kept at room temperature for 24 hrs): weak potency | effect on [α-32P]-GTP binding to Ras [7]: neither drug affected | effect on [α-32P]-GTP binding to RalA [8]: neither drug affected | effect on [α-32P]-GTP binding to Rab3A [9]: neither drug affected | [α-32P]-GTP binding to dynamin I in the presence of drug [4]: not seen to decrease; also recorded: not affected | effect on [α-32P]-GTP binding to Arf2 [10]: neither drug affected | inhibition of synaptic vesicle endocytosis (SVE) ([11]; synaptosomes): did not | retrieval efficiency (endocytosis/exocytosis) ([11]; 1 indicates no drug effect): 0.95 (±0.05) | internalisation of texas-red labelled transferrin into Swiss 3T3 cells [12]: not as dramatically as bis-tyrphostin
